Reference: patent US20250228865A1, “COMPOUNDS FOR ENHANCING READ THROUGH OF GENES CONTAINING PREMATURE TERMINATION CODONS AND METHODS FOR MAKING AND USING THE SAME” (Sanofi US Services Inc., priority 2022, published 2025)

Tests used:
[1] = tested on: recombinant human CFTR carrying the premature stop codon (PTC) mutation G542X; assay: CFTR-PTC mutant translation readthrough, Nanoluc tagged CFTR luminescence (G542X cell line); assay type: cell-based; details: in combination with G418, G542X cell line; for CFTR G542X ACTIVITY Fold 10 μM G-418: fold over 10 μM G-418; for EC50: 16HBE cells
How it was run: (§1)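 Readthrough is the 48 h compound-induced luminescence increase scaled to that of maximal G418 (125-250 μM). Compounds run from 50 μM final in 2-fold steps, ±10 μM G418, on 16HBE lines carrying Nanoluc-tagged CFTR G542X (extracellular loop 4 tag) or R1162X (C-terminal tag), with 3 μM VX-809 present.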

[2] = tested on: recombinant human CFTR carrying the premature stop codon (PTC) mutation R1162X; assay: CFTR-PTC mutant translation readthrough, Nanoluc tagged CFTR luminescence (R1162X cell line); assay type: cell-based; details: for CFTR R1162X ACTIVITY Fold 10 μM G-418: fold over 10 μM G-418, in combination with G418; for EC50: in combination with G418, 16HBE cells, read-out: CFTR R1162X ACTIVITY EC50
How it was run: as §1

Compound	EC50 [1]	EC50 [2]	CFTR G542X ACTIVITY Fold 10 μM G-418 [1]	CFTR R1162X ACTIVITY Fold 10 μM G-418 [2]
O=C1OC(CO)CN1c1ccc(OCc2cc(Cl)cc(Cl)c2)cc1 (stereo not drawn) [3-[4-[(3,5-dichlorophenyl)methoxy]phenyl]-5-(hydroxymethyl)oxazolidin-2-one]	1 to 10 µM	> 10 µM	B′ (B′ = ≥5X to <10X)	B′ (B′ = ≥5X to <10X)
CC(=O)NC[C@H]1CN(c2ncc(OCc3c(C)cccc3C(F)(F)F)cn2)CCO1	< 1 µM	1 to 10 µM	A′ (A′ = ≥10X)	A′ (A′ = ≥10X)
Cc1cccc(C(F)(F)F)c1COc1cnc(-n2cc(CO)nn2)nc1	1 to 10 µM	1 to 10 µM	A′ (A′ = ≥10X)	A′ (A′ = ≥10X)
NC(=O)CN1CCN(c2ncc(OCc3c(Cl)cccc3Cl)cn2)CC1 [2-[4-[5-[(2,6-dichlorophenyl)methoxy]pyrimidin-2-yl]piperazin-1-yl]acetamide]	1 to 10 µM	1 to 10 µM	B′ (B′ = ≥5X to <10X)	B′ (B′ = ≥5X to <10X)
CC1CN(c2ncc(OCc3c(Cl)cccc3Cl)cn2)CCN1C(N)=O (stereo not drawn)	< 1 µM	< 1 µM	A′ (A′ = ≥10X)	A′ (A′ = ≥10X)
CC1CC(CO)CN1c1ncc(OCc2c(Cl)cccc2Cl)cn1 (stereo not drawn)	1 to 10 µM	1 to 10 µM	A′ (A′ = ≥10X)	A′ (A′ = ≥10X)
Cn1cnc(-c2ccc(OCc3c(Cl)cccc3Cl)cc2)c1 [4-[4-[(2,6-dichlorophenyl)methoxy]phenyl]-1-methyl-imidazole]	1 to 10 µM	1 to 10 µM	A′ (A′ = ≥10X)	A′ (A′ = ≥10X)
CN1CCN(c2ncc(OCc3c(Cl)cccc3Cl)cn2)CC1=O [4-[5-[(2,6-dichlorophenyl)methoxy]pyrimidin-2-yl]-1-methyl-piperazin-2-one]	1 to 10 µM	1 to 10 µM	A′ (A′ = ≥10X)	A′ (A′ = ≥10X)
Clc1cccc(Cl)c1COc1ccc(-n2ccnc2)cc1 [1-[4-[(2,6-dichlorophenyl)methoxy]phenyl]imidazole]	1 to 10 µM	> 10 µM	B′ (B′ = ≥5X to <10X)	A′ (A′ = ≥10X)
O=C1OC(CO)CN1c1ccc(OCc2c(Cl)cccc2C(F)(F)F)cn1 (stereo not drawn)	< 1 µM	1 to 10 µM	A′ (A′ = ≥10X)	A′ (A′ = ≥10X)
OCc1nnc(-c2ccc(OCc3c(Cl)cccc3C(F)(F)F)cc2)o1	< 1 µM	< 1 µM	A′ (A′ = ≥10X)	A′ (A′ = ≥10X)
NC(=O)N1CCC(c2ncc(OCc3c(Cl)cccc3C(F)(F)F)cn2)CC1	< 1 µM	< 1 µM	A′ (A′ = ≥10X)	A′ (A′ = ≥10X)
O=C(O)C1CCN(c2ncc(OCc3c(Cl)cccc3C(F)(F)F)cn2)CC1 [1-[5-[[2-chloro-6-(trifluoromethyl)phenyl]methoxy]pyrimidin-]	1 to 10 µM	1 to 10 µM	A;	A′ (A′ = ≥10X)
OCc1cn(-c2ccc(CCc3c(Cl)cccc3Cl)cn2)cn1 [[1-[5-[2-(2,6-dichlorophenyl)ethyl]-2-pyridyl]imidazol-4-yl]methanol]	1 to 10 µM	> 10 µM	B′ (B′ = ≥5X to <10X)	′
CC1(C)CN(c2ncc(OCc3c(Cl)cccc3Cl)cn2)CC(CO)O1 (stereo not drawn)	1 to 10 µM	1 to 10 µM	A′ (A′ = ≥10X)	A′ (A′ = ≥10X)
Clc1cccc(Cl)c1COc1cnc(-n2cc(-c3ccccn3)nn2)nc1 [5-[(2,6-dichlorophenyl)methoxy]-2-[4-(2-pyridyl)triazol-1-yl]pyrimidine]	< 1 µM	< 1 µM	A′ (A′ = ≥10X)	A′ (A′ = ≥10X)
Cc1cccc(C(F)(F)F)c1COc1cnc(N2CCS(=O)(=O)C(CO)C2)nc1 (stereo not drawn) [[4-[5-[[2-methyl-6-(trifluoromethyl)phenyl]methoxy]pyrimidin]	1 to 10 µM	1 to 10 µM	A′ (A′ = ≥10X)	A′ (A′ = ≥10X)
O[C@H]1CCN(c2ncc(OCc3c(Cl)cccc3Cl)cn2)C1 [(3S)-1-[5-[(2,6-dichlorophenyl)methoxy]pyrimidin-2-yl]pyrrolidin-3-ol]	1 to 10 µM	1 to 10 µM	A′ (A′ = ≥10X)	A′ (A′ = ≥10X)
CN(CCCO)c1ncc(OCc2c(Cl)cccc2Cl)cn1 [3-[[5-[(2,6-dichlorophenyl)methoxy]pyrimidin-2-yl]-methyl-amino]propan-1-ol]	1 to 10 µM	> 10 µM	B′ (B′ = ≥5X to <10X)	B′ (B′ = ≥5X to <10X)
NC[C@@H]1CN(c2ncc(OCc3c(Cl)cccc3Cl)cn2)CCO1	< 1 µM	1 to 10 µM	B′ (B′ = ≥5X to <10X)	A′ (A′ = ≥10X)
Cc1cccc(C(F)(F)F)c1COc1ccc(-n2cnc(CO)n2)nc1	< 1 µM	< 1 µM	A′ (A′ = ≥10X)	A′ (A′ = ≥10X)
OCc1cn(-c2ccc(CCc3c(Cl)cccc3Cl)cc2)cn1 [[1-[4-[2-(2,6-dichlorophenyl)ethyl]phenyl]imidazol-4-yl]methanol]	1 to 10 µM	> 10 µM	B′ (B′ = ≥5X to <10X)	A′ (A′ = ≥10X)

Second part, led by results:

EC50 [1]	EC50 [2]	Compound	CFTR G542X ACTIVITY Fold 10 μM G-418 [1]	CFTR R1162X ACTIVITY Fold 10 μM G-418 [2]
1 to 10 µM	1 to 10 µM	O=C1CN(c2ncc(OCc3c(Cl)cccc3C(F)(F)F)cn2)C[C@H](CO)N1	A′ (A′ = ≥10X)	A′ (A′ = ≥10X)
< 1 µM	1 to 10 µM	OCc1cc(-c2ncc(OCc3c(Cl)cccc3C(F)(F)F)cn2)[nH]n1	A′ (A′ = ≥10X)	A′ (A′ = ≥10X)
> 10 µM	> 10 µM	Cc1cccc(C)c1COc1ccc(N2CC(CO)OC2=O)c2ccccc12 (stereo not drawn) [3-[4-[(2,6-dimethylphenyl)methoxy]-1-naphthyl]-5-(hydroxymethyl)oxazolidin-2-one]		C′ (C′ = <5X)
1 to 10 µM	1 to 10 µM	O=C1OC(CO)CN1c1ccc(OCc2cc(Cl)cc(Cl)c2)cn1 (stereo not drawn) [3-[5-[(3,5-dichlorophenyl)methoxy]-2-pyridyl]-5-(hydroxymethyl)oxazolidin-2-one]	A′ (A′ = ≥10X)	A′ (A′ = ≥10X)
1 to 10 µM	1 to 10 µM	OCc1cn(-c2ccc(OCc3c(Cl)cccc3C(F)(F)F)cc2)nn1 [[1-[4-[[2-chloro-6-(trifluoromethyl)phenyl]methoxy]phenyl]triazol-4-yl]methanol]	A′ (A′ = ≥10X)	A′ (A′ = ≥10X)
1 to 10 µM	1 to 10 µM	OCc1cnn(-c2ncc(OCc3c(Cl)cccc3Cl)cn2)n1 [[2-[5-[(2,6-dichlorophenyl)methoxy]pyrimidin-2-yl]triazol-4-yl]methanol]	A′ (A′ = ≥10X)	A′ (A′ = ≥10X)
> 10 µM	> 10 µM	Clc1cccc(Cl)c1COc1cnc(-c2nnn[nH]2)nc1 [5-[(2,6-dichlorophenyl)methoxy]-2-(1H-tetrazol-5-yl)pyrimidine]		
1 to 10 µM	1 to 10 µM	O=C1O[C@@H](CO)CN1c1ccc(OCc2c(Cl)cccc2Cl)cc1 [(5R)-3-[4-[(2,6-dichlorophenyl)methoxy]phenyl]-5-(hydroxymethyl)oxazolidin-2-one]	A′ (A′ = ≥10X)	A′ (A′ = ≥10X)
> 10 µM	> 10 µM	CC(C)C1NC(=O)N(c2ncc(OCc3c(Cl)cccc3Cl)cn2)C1=O (stereo not drawn)	A′ (A′ = ≥10X)	B′ (B′ = ≥5X to <10X)
> 10 µM	> 10 µM	CN(C)CC1CN(c2ncc(OCc3c(Cl)cccc3Cl)cn2)CCO1 (stereo not drawn)	A′ (A′ = ≥10X)	B′ (B′ = ≥5X to <10X)
> 10 µM	> 10 µM	O=C1OC(CO)CN1c1ncc(OC(F)(F)c2c(Cl)cccc2Cl)cn1 (stereo not drawn)		
< 1 µM	1 to 10 µM	CC(=O)NCC1CN(c2ncc(OCc3c(Cl)cccc3Cl)cn2)CCO1 (stereo not drawn)	A′ (A′ = ≥10X)	A′ (A′ = ≥10X)
1 to 10 µM	1 to 10 µM	Clc1cccc(Cl)c1COc1cnc(N2CCOCC2)nc1 [4-[5-[(2,6-dichlorophenyl)methoxy]pyrimidin-2-yl]morpholine]	A′ (A′ = ≥10X)	A′ (A′ = ≥10X)
> 10 µM	> 10 µM	O=C(O)c1ncn(-c2ncc(OCc3c(Cl)cccc3C(F)(F)F)cn2)n1		
1 to 10 µM	1 to 10 µM	O=C1CN(c2ncc(OCc3c(Cl)cccc3C(F)(F)F)cn2)CC(CO)N1 (stereo not drawn)	A′ (A′ = ≥10X)	A′ (A′ = ≥10X)
